Measurements reported in US20260158050A1, “USE OF EIDD-1931 OR DERIVATIVE THEREOF IN TREATMENT OF ENTEROVIRUS INFECTION” (ACADEMY OF MILITARY MEDICAL SCIENCES, priority 2022, published 2026).

What was measured:
EV-A71 VP1 protein = assay: inhibition of EV-A71 VP1 protein synthesis (immunofluorescence, Western blot); type: cell-based; details: Vero cells IF, RD cells Western blot (FIG. 4)
Experimental: Vero cells were seeded in a 96-well black plate at a density of about 1.0×10^4 per well and cultured at 37° C. and 5% CO2 for 24 hours. Then, EV-A71 virus was diluted to the corresponding concentration with cell maintenance medium and added into the 96-well plate (MOI=1). At the same time, the test compounds EIDD-1931 and EIDD-2801, which had been diluted in advance with cell maintenance medium, were added at the final concentrations of 10 μM, 3 μM and 100 μM, 30 μM, respectively. Then the cells were cultured for 16 hours, the liquid was discarded, 100 μL of 4% formaldehyde was added to each well for fixation for 30 minutes, the fixative was discarded, PBS buffer was added, and the antibody was incubated and labeled for imaging.
RD cells were seeded in a 12-well plate at a density of about 1.0×10^5 per well and cultured at 37° C. and 5% CO2 for 24 hours. Then, EV-A71 virus was diluted to the corresponding concentration with cell maintenance medium and added to the 12-well plate so that the virus content in each well was 0.1 MOI. […] After the protein concentration was determined with BCA protein quantification kit, the corresponding volume of 5×SDS Loading Buffer was added and boiled at 100° C. for 10 minutes to fully denature the protein. […]

EV-A71 [1] = assay: time series experiment, intracellular viral RNA load in RD cells; type: cell-based; details: 10 μM, 0.01 MOI (FIG. 5)
Experimental: The specific steps were as follows: RD cells were seeded in a 12-well plate at a density of about 4.0×10^5 per well and cultured at 37° C. and 5% CO2 for 24 hours. Subsequently, the test compound EIDD-1931, the positive compound NITD008 and the EV-A71 virus were diluted to the corresponding concentrations with the cell maintenance medium, and then the pre-diluted compound or virus was added at the time point as shown in A in FIG. 5. After 30 hours of continuous culture, the cell supernatant was discarded, the intracellular RNA was extracted, and the intracellular viral RNA load was detected by qRT-PCR. The intracellular RNA extraction method and qRT-PCR system and reaction conditions were the same as described above.

CV-A16 190-D1 = assay: CPE protection, CV-A16 190-D1 strain; type: cell-based; details: for EC50: CV-A16 190-D1, RD cells
various enteroviruses = assay: broad-spectrum anti-enteroviral activity (CPE), summary over viruses; type: cell-based; details: all viruses of Table 1; read-out: EC50 values against various enteroviruses
Experimental: In this experiment, the experiment on protection of EIDD-1931 and EIDD-2801 against CPE caused by EV-A71 virus AH08/06 strain, EV-D68 virus STL-2014-12 strain, CV-A6 TW-2007-00141 strain, and CV-A16 190-D1 strain were all performed by using RD cells. The experiments on protection of EIDD-1931 and EIDD-2801 against CPE caused by CV-B3 Nancy strain were performed by using Vero cells. The specific experimental methods were the same as those in Example 1.

EV-A71 [2] = assay: EV-A71 viral load in ICR suckling mice tissues (qRT-PCR); type: in vivo; details: 200 mg/kg intraperitoneally once per day, 4th day (FIG. 7)
EV-D68 STL-2014-12 = assay: CPE protection, EV-D68 STL-2014-12 strain; type: cell-based; details: for EC50: EV-D68 STL-2014-12, RD cells
[3] = system: CHIKV, VEEV, RSV, HCV, NV, IAV, IBV, EBOV, MERS-CoV, SARS-CoV-2; details: background art; cited from earlier work
MERS-CoV or SARS-CoV = details: mice, cited from earlier work

SMILES | inhibition of production of EV-A71 VP1 protein (EV-A71 VP1 protein) | inhibition on the adsorption and entry of the virus (EV-A71 [1]) | stage of virus infection at which the antiviral effect is exerted (EV-A71 [1]) | EC50 (CV-A16 190-D1) | EC50 (various enteroviruses) | viral loads in tissues or organs (brain, heart, small intestine, liver, hind limb muscle, lung) (EV-A71 [2]) | EC50 (EV-D68 STL-2014-12) | inhibitory effects against CHIKV, VEEV, RSV, HCV, NV, IAV, IBV, EBOV, MERS-CoV and SARS-CoV-2 [3] | inhibitory activity against CV-A16 (CV-A16 190-D1) | lung damage caused by MERS-CoV or SARS-CoV infections (MERS-CoV or SARS-CoV; preventive use) | degree of lung damage and weight loss (MERS-CoV or SARS-CoV; therapeutic use within 12 hours or 24 hours after infection) | inhibitory activity against EV-V68 (EV-D68 STL-2014-12)
O=c1nc(NO)ccn1[C@@H]1O[C@H](CO)[C@@H](O)[C@H]1O [EIDD-1931] | dose-dependently inhibit | no obvious inhibition | viral replication stage | 4.14 ± 0.27 µM | < 20 µM | significantly reduced | 9.69 ± 0.04 µM | good inhibitory effects |  |  |  | 
CC(C)C(=O)OC[C@H]1O[C@@H](n2cc/c(=N\O)[nH]c2=O)[C@H](O)[C@@H]1O [EIDD-2801] | dose-dependently inhibit |  |  | 44.9 ± 4.23 µM |  | significantly reduced | 86.2 ± 9.17 µM |  | low inhibitory activity | prevent lung damage | significantly reduce | low inhibitory activity
